{"source": "EPA's ToxRefDB 2", "key": {"rabbit [1]": {"test_system": "rabbit", "settings": "Prenatal developmental toxicity study, new zealand white, Oral, Gavage/Intubation, dose end: 18 GD"}, "dog [2]": {"test_system": "dog", "settings": "Chronic toxicity, beagle, Oral, Capsule, dose end: 28 day, group: systemic"}, "rat [3]": {"test_system": "rat", "settings": "Prenatal developmental toxicity study, sprague dawley, Oral, Gavage/Intubation, dose end: 19 GD"}, "rabbit [4]": {"test_system": "rabbit", "settings": "Prenatal developmental toxicity study, new zealand white, Oral, Gavage/Intubation, dose end: 28 GD"}, "rat [5]": {"test_system": "rat", "settings": "Chronic toxicity, fischer, Oral, Feed, dose end: 24 month, group: systemic"}, "rabbit [6]": {"test_system": "rabbit", "settings": "Prenatal developmental toxicity study, new zealand white, Oral, Gavage/Intubation, dose end: 19 GD"}, "rat [7]": {"test_system": "rat", "settings": "Multigenerational reproductive toxicity study, sprague dawley, Oral, Feed, dose end: 2 generation"}, "mouse [8]": {"test_system": "mouse", "settings": "Carcinogenicity, cd1, Oral, Feed, dose end: 113 week, group: systemic"}, "mouse [9]": {"test_system": "mouse", "settings": "Carcinogenicity, b6c3f1, Oral, Feed, dose end: 104 week, group: systemic"}, "rat [10]": {"test_system": "rat", "settings": "Combined chronic toxicity/carcinogenicity, sprague dawley, Oral, Feed, dose end: 104 week, group: systemic"}, "dog [11]": {"test_system": "dog", "settings": "Chronic toxicity; beagle; Oral; Capsule; dose end: 12 month; group: systemic; systemic / in life observation / body weight / body weight gain + systemic / clinical chemistry / albumin / albumin + systemic / clinical …"}, "[12]": {"settings": "group: developmental, developmental / developmental malformation / bone / [other] + developmental / developmental malformation / bone / misshapen fontanel + …"}, "[13]": {"settings": "group: maternal, reproductive / reproductive performance / aborted / aborted + reproductive / reproductive performance / resorptions / resorptions + systemic…"}, "[14]": {"settings": "systemic / in life observation / clinical signs / emesis + systemic / organ weight / liver / absolute + systemic / organ weight / brain / …"}, "[15]": {"settings": "group: developmental, developmental / developmental malformation / bone / incomplete ossification + developmental / developmental malformation / bone / misaligned…"}, "[16]": {"settings": "group: maternal, systemic / in life observation / body weight / body weight gain + systemic / in life observation / clinical signs / respiration (rales)"}, "[17]": {"settings": "group: maternal, systemic / in life observation / body weight / body weight gain + systemic / in life observation / clinical signs / respiration (rales) + …"}, "[18]": {"settings": "group: developmental, developmental / developmental malformation / bone / domed head + developmental / developmental malformation / bone / misshapen fontanel + …"}, "[19]": {"settings": "group: maternal, systemic / in life observation / food consumption / food consumption"}, "[20]": {"settings": "systemic / pathology microscopic / stomach / hyperkeratosis"}, "[21]": {"settings": "systemic / pathology microscopic / stomach / hyperkeratosis + systemic / in life observation / body weight / body weight gain + systemic / …"}, "[22]": {"settings": "group: developmental, developmental / developmental malformation / bone / unossified"}, "[23]": {"settings": "group: developmental, developmental / developmental malformation / bone / unossified + developmental / developmental malformation / bone / delayed ossification + …"}, "[24]": {"settings": "group: maternal, systemic / in life observation / body weight / body weight gain + systemic / in life observation / food consumption / food consumption + …"}, "[25]": {"settings": "group: offspring, systemic / in life observation / body weight / offspring (pup) weight"}, "[26]": {"settings": "group: parental, systemic / in life observation / body weight / body weight + systemic / in life observation / body weight / body weight gain + systemic / in…"}, "[27]": {"settings": "group: reproductive, reproductive / reproductive performance / fertility / fertility"}, "[28]": {"settings": "systemic / hematology / hematocrit (hct) / hematocrit (hct) + systemic / in life observation / clinical signs / weakness + systemic / …"}, "[29]": {"settings": "systemic / pathology microscopic / stomach / hyperkeratosis + systemic / pathology microscopic / intestine small / carcinoma + systemic / …"}, "[30]": {"settings": "systemic / pathology microscopic / stomach / hyperkeratosis + systemic / pathology microscopic / intestine small / hyperplasia + systemic / …"}, "[31]": {"settings": "systemic / pathology microscopic / stomach / acanthosis + systemic / pathology microscopic / stomach / erosion + systemic / pathology …"}, "[32]": {"settings": "systemic / pathology microscopic / testes / interstitial cell tumor nos + systemic / pathology microscopic / thyroid gland / adenoma/…"}}, "data": [{"molecule": "O=C1c2ccccc2C(=O)N1SC(Cl)(Cl)Cl", "note": "[Folpet]", "values": [{"measurement": "LEL", "setting": "rabbit [1]; [12]", "result": 60, "unit": "mg/kg/day"}, {"measurement": "LOAEL", "setting": "rabbit [1]; [12]", "result": "> 60", "unit": "mg/kg/day"}, {"measurement": "NEL", "setting": "rabbit [1]; [12]", "result": "< 60", "unit": "mg/kg/day"}, {"measurement": "NOAEL", "setting": "rabbit [1]; [12]", "result": "≥ 60", "unit": "mg/kg/day"}, {"measurement": "LEL", "setting": "rabbit [1]; [13]", "result": 60, "unit": "mg/kg/day"}, {"measurement": "LOAEL", "setting": "rabbit [1]; [13]", "result": "> 60", "unit": "mg/kg/day"}, {"measurement": "NEL", "setting": "rabbit [1]; [13]", "result": "< 60", "unit": "mg/kg/day"}, {"measurement": "NOAEL", "setting": "rabbit [1]; [13]", "result": "≥ 60", "unit": "mg/kg/day"}, {"measurement": "LOAEL", "setting": "dog [2]; systemic / in life observation / body weight / body weight gain + systemic / in life observation / body weight / body weight", "result": 60, "unit": "mg/kg/day"}, {"measurement": "NOAEL", "setting": "dog [2]; systemic / in life observation / body weight / body weight gain + systemic / in life observation / body weight / body weight + systemic / in…", "result": 20, "unit": "mg/kg/day"}, {"measurement": "LEL", "setting": "dog [2]; [14]", "result": 20, "unit": "mg/kg/day"}, {"measurement": "NEL", "setting": "dog [2]; [14]", "result": "< 20", "unit": "mg/kg/day"}, {"measurement": "LEL", "setting": "rat [3]; [15]", "result": 360, "unit": "mg/kg/day"}, {"measurement": "LOAEL", "setting": "rat [3]; [15]", "result": 360, "unit": "mg/kg/day"}, {"measurement": "NEL", "setting": "rat [3]; [15]", "result": 60, "unit": "mg/kg/day"}, {"measurement": "NOAEL", "setting": "rat [3]; [15]", "result": 60, "unit": "mg/kg/day"}, {"measurement": "LEL", "setting": "rat [3]; [16]", "result": 60, "unit": "mg/kg/day"}, {"measurement": "LOAEL", "setting": "rat [3]; [16]", "result": 60, "unit": "mg/kg/day"}, {"measurement": "NEL", "setting": "rat [3]; [17]", "result": 10, "unit": "mg/kg/day"}, {"measurement": "NOAEL", "setting": "rat [3]; [17]", "result": 10, "unit": "mg/kg/day"}, {"measurement": "LEL", "setting": "rabbit [4]; [18]", "result": 20, "unit": "mg/kg/day"}, {"measurement": "LOAEL", "setting": "rabbit [4]; [18]", "result": 20, "unit": "mg/kg/day"}, {"measurement": "NEL", "setting": "rabbit [4]; [18]", "result": 10, "unit": "mg/kg/day"}, {"measurement": "NOAEL", "setting": "rabbit [4]; [18]", "result": 10, "unit": "mg/kg/day"}, {"measurement": "LEL", "setting": "rabbit [4]; [19]", "result": 20, "unit": "mg/kg/day"}, {"measurement": "LOAEL", "setting": "rabbit [4]; [19]", "result": 20, "unit": "mg/kg/day"}, {"measurement": "NEL", "setting": "rabbit [4]; [19]", "result": 10, "unit": "mg/kg/day"}, {"measurement": "NOAEL", "setting": "rabbit [4]; [19]", "result": 10, "unit": "mg/kg/day"}, {"measurement": "LEL", "setting": "rat [5]; [20]", "result": 81, "unit": "mg/kg/day"}, {"measurement": "LOAEL", "setting": "rat [5]; [20]", "result": 81, "unit": "mg/kg/day"}, {"measurement": "NEL", "setting": "rat [5]; [21]", "result": 12, "unit": "mg/kg/day"}, {"measurement": "NOAEL", "setting": "rat [5]; [21]", "result": 12, "unit": "mg/kg/day"}, {"measurement": "LEL", "setting": "rabbit [6]; [22]", "result": 40, "unit": "mg/kg/day"}, {"measurement": "LOAEL", "setting": "rabbit [6]; [22]", "result": 40, "unit": "mg/kg/day"}, {"measurement": "NEL", "setting": "rabbit [6]; [23]", "result": 10, "unit": "mg/kg/day"}, {"measurement": "NOAEL", "setting": "rabbit [6]; [23]", "result": 10, "unit": "mg/kg/day"}, {"measurement": "LOAEL", "setting": "rabbit [6]; group: maternal, systemic / in life observation / body weight / body weight gain + systemic / in life observation / food consumption / food consumption", "result": 160, "unit": "mg/kg/day"}, {"measurement": "LEL", "setting": "rabbit [6]; [24]", "result": 160, "unit": "mg/kg/day"}, {"measurement": "NEL", "setting": "rabbit [6]; [24]", "result": 40, "unit": "mg/kg/day"}, {"measurement": "NOAEL", "setting": "rabbit [6]; [24]", "result": 40, "unit": "mg/kg/day"}, {"measurement": "LEL", "setting": "rat [7]; [25]", "result": 180, "unit": "mg/kg/day"}, {"measurement": "LOAEL", "setting": "rat [7]; [25]", "result": 180, "unit": "mg/kg/day"}, {"measurement": "NEL", "setting": "rat [7]; [25]", "result": 40, "unit": "mg/kg/day"}, {"measurement": "NOAEL", "setting": "rat [7]; [25]", "result": 40, "unit": "mg/kg/day"}, {"measurement": "LOAEL", "setting": "rat [7]; [26]", "result": 180, "unit": "mg/kg/day"}, {"measurement": "NEL", "setting": "rat [7]; [26]", "result": 10, "unit": "mg/kg/day"}, {"measurement": "NOAEL", "setting": "rat [7]; [26]", "result": 40, "unit": "mg/kg/day"}, {"measurement": "LEL", "setting": "rat [7]; group: parental, systemic / in life observation / food consumption / food consumption", "result": 40, "unit": "mg/kg/day"}, {"measurement": "LEL", "setting": "rat [7]; [27]", "result": 180, "unit": "mg/kg/day"}, {"measurement": "LOAEL", "setting": "rat [7]; [27]", "result": 180, "unit": "mg/kg/day"}, {"measurement": "NEL", "setting": "rat [7]; [27]", "result": 40, "unit": "mg/kg/day"}, {"measurement": "NOAEL", "setting": "rat [7]; [27]", "result": 40, "unit": "mg/kg/day"}, {"measurement": "LEL", "setting": "mouse [8]; [28]", "result": 93, "unit": "mg/kg/day"}, {"measurement": "NEL", "setting": "mouse [8]; [28]", "result": "< 93", "unit": "mg/kg/day"}, {"measurement": "LOAEL", "setting": "mouse [8]; systemic / pathology microscopic / intestine small / hyperplasia", "result": 1280, "unit": "mg/kg/day"}, {"measurement": "NOAEL", "setting": "mouse [8]; systemic / pathology microscopic / intestine small / hyperplasia + systemic / pathology microscopic / intestine small / adenocarcinoma + …", "result": 502, "unit": "mg/kg/day"}, {"measurement": "LOAEL", "setting": "mouse [9]; [29]", "result": 150, "unit": "mg/kg/day"}, {"measurement": "NOAEL", "setting": "mouse [9]; [29]", "result": "< 150", "unit": "mg/kg/day"}, {"measurement": "LEL", "setting": "mouse [9]; [30]", "result": 150, "unit": "mg/kg/day"}, {"measurement": "NEL", "setting": "mouse [9]; [30]", "result": "< 150", "unit": "mg/kg/day"}, {"measurement": "LOAEL", "setting": "rat [10]; [31]", "result": 35, "unit": "mg/kg/day"}, {"measurement": "NOAEL", "setting": "rat [10]; [31]", "result": 9, "unit": "mg/kg/day"}, {"measurement": "LEL", "setting": "rat [10]; [32]", "result": 9, "unit": "mg/kg/day"}, {"measurement": "NEL", "setting": "rat [10]; [32]", "result": "< 9", "unit": "mg/kg/day"}, {"measurement": "LEL", "setting": "dog [11]", "result": 60, "unit": "mg/kg/day"}, {"measurement": "LOAEL", "setting": "dog [11]", "result": 60, "unit": "mg/kg/day"}, {"measurement": "NEL", "setting": "dog [11]", "result": 10, "unit": "mg/kg/day"}, {"measurement": "NOAEL", "setting": "dog [11]", "result": 10, "unit": "mg/kg/day"}]}]}
